Measured values as given in patent US20230085307A1, “PYRIDAZINONE COMPOUND AND HERBICIDE” (NISSAN CHEMICAL CORPORATION, priority 2019, published 2023).

What was measured:
velvetleaf = test: Test Example 5: herbicidal effect by foliage application, plastic box (Table 20, symbol M); format: in vivo, velvetleaf (Abutilon theophrasti); details: foliage application, 320 g/ha, three weeks after application
Method in brief: (§1)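 Plants sown in sterilized diluvial soil and grown 14 days in a greenhouse at 25° C to 30° C, then sprayed on the foliage with the compound's emulsion diluted in water to a predetermined herbicide amount. Injury to weeds and crops scored three weeks after application on a visual rating scale.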

windgrass [1] = test: Test Example 4: herbicidal effect by soil treatment (Table 19, symbol L); format: in vivo, windgrass (Apera spica-venti); details: amount of applied herbicide 320 g/ha
Method in brief: (§2)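 Seeds were sown in sterilized diluvial soil and covered with about 1.5 cm of soil. An emulsion formulation diluted with water to a predetermined herbicide amount was sprayed evenly onto the soil surface. Plants grew in a greenhouse at 25° C. to 30° C., and the effect was scored three weeks after application using criteria from an earlier test.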

green foxtail [2] = test: Test Example 4: herbicidal effect by soil treatment (Table 19, symbol G); format: in vivo, green foxtail (Setaria viridis); details: amount of applied herbicide 320 g/ha
Method in brief: as §2

late watergrass = test: Test Example 1: herbicidal activity, application before weed generation under submerged conditions (Table 16, symbol A); format: in vivo, late watergrass (Echinochloa oryzicola); details: amount of applied herbicide 320 g/ha
Method in brief: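 Alluvial soil was flooded to 4 cm depth, weed seeds were sown mixed and 2.5-leaf rice seedlings were transplanted. On sowing day, the compound's emulsion, diluted in water to a set dose, was applied to the water surface. Plants grew at 25–30 °C and were scored 0–5 after three weeks.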

green foxtail [3] = test: Test Example 5: herbicidal effect by foliage application, plastic box (Table 20, symbol G); format: in vivo, green foxtail (Setaria viridis); details: foliage application, 320 g/ha, three weeks after application
Method in brief: as §1

barnyard grass = test: Test Example 4: herbicidal effect by soil treatment (Table 19, symbol H); format: in vivo, barnyard grass (Echinochloa crus-galli); details: amount of applied herbicide 320 g/ha
Method in brief: as §2

Italian ryegrass = test: Test Example 4: herbicidal effect by soil treatment (Table 19, symbol K); format: in vivo, Italian ryegrass (Lolium multiflorum); details: amount of applied herbicide 320 g/ha
Method in brief: as §2

lambsquarters [4] = test: Test Example 5: herbicidal effect by foliage application, plastic box (Table 20, symbol O); format: in vivo, lambsquarters (Chenopodium album); details: foliage application, 320 g/ha, three weeks after application
Method in brief: as §1

persian speedwell = test: Test Example 5: herbicidal effect by foliage application, plastic box (Table 20, symbol R); format: in vivo, Persian speedwell (Veronica persica); details: foliage application, 320 g/ha, three weeks after application
Method in brief: as §1

wild oat [5] = test: Test Example 5: herbicidal effect by foliage application, plastic box (Table 20, symbol I); format: in vivo, wild oat (Avena fatua); details: foliage application, 320 g/ha, three weeks after application
Method in brief: as §1

chickweed = test: Test Example 4: herbicidal effect by soil treatment (Table 19, symbol P); format: in vivo, common chickweed (Stellaria media); details: amount of applied herbicide 320 g/ha
Method in brief: as §2

Chinese sprangletop = test: Test Example 3: herbicidal effect by foliage application, Wagner pot (Table 18, symbol D); format: in vivo, chinese sprangletop (Leptochloa chinensis); details: for herbicidal effect on Chinese sprangletop (D): 320 g/ha; for Herbicidal effect on D (Chinese sprangletop), foliage application: amount of applied herbicide 320 g/ha
Method in brief: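 Plants were sown in alluvial soil held under 0.1–0.5 cm standing water and grown 14 days in a greenhouse at 25–30 °C. An emulsifiable formulation, water-diluted to the set dose, was then sprayed onto the foliage, and effects were scored three weeks later using previously defined criteria.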

windgrass [6] = test: Test Example 5: herbicidal effect by foliage application, plastic box (Table 20, symbol L); format: in vivo, windgrass (Apera spica-venti); details: foliage application, 320 g/ha, three weeks after application
Method in brief: as §1

lambsquarters [7] = test: Test Example 4: herbicidal effect by soil treatment (Table 19, symbol O); format: in vivo, lambsquarters (Chenopodium album); details: amount of applied herbicide 320 g/ha
Method in brief: as §2

Japanese bulrush = test: Test Example 2: herbicidal activity, application during weed generation under submerged conditions (Table 17, symbol B); format: in vivo, Japanese bulrush (Schoenoplectus juncoides); details: AAH 320 g/ha; application during weed generation, submerged conditions
Method in brief: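 Alluvial soil in Wagner pots was flooded to 4 cm depth and sown with the three weeds together; pots were kept in a greenhouse at 25° C. to 30° C. At the one to two leaf stage, an emulsion formulation diluted in water to a set rate went onto the water surface; scored three weeks later.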

wild oat [8] = test: Test Example 4: herbicidal effect by soil treatment (Table 19, symbol I); format: in vivo, wild oat (Avena fatua); details: amount of applied herbicide 320 g/ha
Method in brief: as §2

Structure (SMILES) | herbicidal effect on velvetleaf (M) (velvetleaf) | L: windgrass, herbicidal effect grade (windgrass [1]) | G: green foxtail, herbicidal effect grade (green foxtail [2]) | Herbicidal effect, A: late watergrass (late watergrass) | herbicidal effect on green foxtail (G) (green foxtail [3]) | H: barnyard grass, herbicidal effect grade (barnyard grass) | K: Italian ryegrass, herbicidal effect grade (Italian ryegrass) | herbicidal effect on lambsquarters (O) (lambsquarters [4]) | herbicidal effect on persian speedwell (R) (persian speedwell) | herbicidal effect on wild oat (I) (wild oat [5]) | P: chickweed, herbicidal effect grade (chickweed) | herbicidal effect on Chinese sprangletop (D) (Chinese sprangletop) | herbicidal effect on windgrass (L) (windgrass [6]) | O: lambsquarters, herbicidal effect grade (lambsquarters [7]) | herbicidal effect rating, B: Japanese bulrush (Japanese bulrush) | I: wild oat, herbicidal effect grade (wild oat [8]) | Herbicidal effect on D (Chinese sprangletop), foliage application (Chinese sprangletop)
CCCC(=O)Oc1c(C)nn(C)c(=O)c1-c1c(-c2ccc(F)cc2)sc2cc(C)c(C)cc12 [5-089] | 0 (Herbicidal rate of 5% or less (almost no effect)) | 4 (Herbicidal rate of 70% or more and less than 90%) | 0 (Herbicidal rate of 5% or less (almost no effect)) | 3 (Herbicidal rate of 40% or more and less than 70%) | 0 (Herbicidal rate of 5% or less (almost no effect)) | 0 (Herbicidal rate of 5% or less (almost no effect)) | 0 (Herbicidal rate of 5% or less (almost no effect)) | 0 (Herbicidal rate of 5% or less (almost no effect)) | 1 (Herbicidal rate of 5% or more and less than 20%) | 0 (Herbicidal rate of 5% or less (almost no effect)) | 0 (Herbicidal rate of 5% or less (almost no effect)) | 3 (Herbicidal rate of 40% or more and less than 70%) | 0 (Herbicidal rate of 5% or less (almost no effect)) | 0 (Herbicidal rate of 5% or less (almost no effect)) | 0 (Herbicidal rate of 5% or less (almost no effect)) | 0 (Herbicidal rate of 5% or less (almost no effect)) | 
CCOc1ccccc1-c1sc2cc(C)c(C)cc2c1-c1c(O)c(C)nn(C)c1=O [5-094] | 4 (Herbicidal rate of 70% or more and less than 90%) | 3 (Herbicidal rate of 40% or more and less than 70%) | 4 (Herbicidal rate of 70% or more and less than 90%) | 4 (Herbicidal rate of 70% or more and less than 90%) | 5 (Herbicidal rate of 90% or more (almost completely withered)) | 1 (Herbicidal rate of 5% or more and less than 20%) | 3 (Herbicidal rate of 40% or more and less than 70%) | 4 (Herbicidal rate of 70% or more and less than 90%) | 5 (Herbicidal rate of 90% or more (almost completely withered)) | 1 (Herbicidal rate of 5% or more and less than 20%) | 1 (Herbicidal rate of 5% or more and less than 20%) | 3 (Herbicidal rate of 40% or more and less than 70%) | 4 (Herbicidal rate of 70% or more and less than 90%) | 3 (Herbicidal rate of 40% or more and less than 70%) | 3 (Herbicidal rate of 40% or more and less than 70%) | 0 (Herbicidal rate of 5% or less (almost no effect)) | 
COc1cc(F)ccc1-c1sc2cc(C)c(C)cc2c1-c1c(O)c(C)nn(C)c1=O [5-101] | 4 (Herbicidal rate of 70% or more and less than 90%) | 0 (Herbicidal rate of 5% or less (almost no effect)) | 0 (Herbicidal rate of 5% or less (almost no effect)) | 3 (Herbicidal rate of 40% or more and less than 70%) | 4 (Herbicidal rate of 70% or more and less than 90%) | 0 (Herbicidal rate of 5% or less (almost no effect)) | 4 (Herbicidal rate of 70% or more and less than 90%) | 4 (Herbicidal rate of 70% or more and less than 90%) | 4 (Herbicidal rate of 70% or more and less than 90%) | 0 (Herbicidal rate of 5% or less (almost no effect)) | 0 (Herbicidal rate of 5% or less (almost no effect)) | 2 (Herbicidal rate of 20% or more and less than 40%) | 3 (Herbicidal rate of 40% or more and less than 70%) | 2 (Herbicidal rate of 20% or more and less than 40%) | 2 (Herbicidal rate of 20% or more and less than 40%) | 0 (Herbicidal rate of 5% or less (almost no effect)) | 
COc1ccccc1-c1sc2c(Br)c(OC)ccc2c1-c1c(O)c(C)nn(C)c1=O [7-002] | 4 (Herbicidal rate of 70% or more and less than 90%) | 0 (Herbicidal rate of 5% or less (almost no effect)) | 0 (Herbicidal rate of 5% or less (almost no effect)) | 3 (Herbicidal rate of 40% or more and less than 70%) | 5 (Herbicidal rate of 90% or more (almost completely withered)) | 2 (Herbicidal rate of 20% or more and less than 40%) | 0 (Herbicidal rate of 5% or less (almost no effect)) | 4 (Herbicidal rate of 70% or more and less than 90%) | 5 (Herbicidal rate of 90% or more (almost completely withered)) | 0 (Herbicidal rate of 5% or less (almost no effect)) | 3 (Herbicidal rate of 40% or more and less than 70%) |  | 5 (Herbicidal rate of 90% or more (almost completely withered)) | 4 (Herbicidal rate of 70% or more and less than 90%) | 2 (Herbicidal rate of 20% or more and less than 40%) | 0 (Herbicidal rate of 5% or less (almost no effect)) | 2 (Herbicidal rate of 20% or more and less than 40%)
Cc1nn(C)c(=O)c(-c2c(-c3ccc4c(c3)OCCO4)oc3ccccc23)c1O [8-002] | 5 (Herbicidal rate of 90% or more (almost completely withered)) | 0 (Herbicidal rate of 5% or less (almost no effect)) | 3 (Herbicidal rate of 40% or more and less than 70%) | 4 (Herbicidal rate of 70% or more and less than 90%) | 3 (Herbicidal rate of 40% or more and less than 70%) | 3 (Herbicidal rate of 40% or more and less than 70%) | 0 (Herbicidal rate of 5% or less (almost no effect)) | 0 (Herbicidal rate of 5% or less (almost no effect)) | 5 (Herbicidal rate of 90% or more (almost completely withered)) | 2 (Herbicidal rate of 20% or more and less than 40%) | 5 (Herbicidal rate of 90% or more (almost completely withered)) |  | 1 (Herbicidal rate of 5% or more and less than 20%) | 0 (Herbicidal rate of 5% or less (almost no effect)) | 4 (Herbicidal rate of 70% or more and less than 90%) | 0 (Herbicidal rate of 5% or less (almost no effect)) | 3 (Herbicidal rate of 40% or more and less than 70%)
